Target: human LPAR1 (Homo sapiens (Human), UniProt Q92633)
Assay: LPAR1 intracellular calcium mobilization assay (antagonist mode, FLIPR)
Assay type: cell-based
Conditions: CHO-K1 EDG2 cells expressing human LPAR1, LPA 18:2 at EC80 (100 nM), test compound 0.5 nM to 10 μM

Sequence of human LPAR1 (Q92633 whole entry): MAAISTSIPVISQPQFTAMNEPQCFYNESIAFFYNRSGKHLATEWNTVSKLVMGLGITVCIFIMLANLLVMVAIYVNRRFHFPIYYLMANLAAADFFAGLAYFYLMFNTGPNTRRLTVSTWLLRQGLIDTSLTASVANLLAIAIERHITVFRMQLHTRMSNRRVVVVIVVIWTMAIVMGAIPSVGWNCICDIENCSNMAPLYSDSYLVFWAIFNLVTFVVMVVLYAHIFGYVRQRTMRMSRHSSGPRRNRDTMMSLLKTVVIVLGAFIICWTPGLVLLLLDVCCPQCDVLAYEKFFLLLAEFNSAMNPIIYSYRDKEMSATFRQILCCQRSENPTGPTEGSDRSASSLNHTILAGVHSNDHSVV

| SMILES | EC50 [nM] |
| --- | --- |
| C[C@@H](OC(=O)Nc1c(-c2ccc(NC=O)cn2)nnn1C)c1cccnc1Cl [Compound 16, (R)-1-(2-chloropyridin-3-yl)ethyl (4-(5-formamidopyridin-2-yl)-1-methyl-1H-1,2,3-triazol-5-yl)carbamate] | 2180 |
| COC(=O)Nc1ccc(-c2nnn(C)c2NC(=O)O[C@H](C)c2cccnc2Cl)nc1 [Compound 17, (R)-1-(2-chloropyridin-3-yl)ethyl (4-(5-((methoxycarbonyl)amino)pyridin-2-yl)-1-methyl-1H-1,2,3-triazol-5-yl)carbamate] | 29.3 |
| COC(=O)Nc1ccc(-c2nnn(C)c2NC(=O)O[C@H](CF)c2ccccc2)cc1 [Compound 18, (S)-2-fluoro-1-phenylethyl (4-(4-((methoxycarbonyl)amino)phenyl)-1-methyl-1H-1,2,3-triazol-5-yl)carbamate] | 1130 |
| COC(=O)Nc1ccc(-c2nnn(C)c2NC(=O)O[C@H](CF)c2cccc(F)c2)nc1 [Compound 19, (S)-2-fluoro-1-(3-fluorophenyl)ethyl (4-(5-((methoxycarbonyl)amino)pyridin-2-yl)-1-methyl-1H-1,2,3-triazol-5-yl)carbamate] | 276 |
| CCOC(=O)Nc1ccc(-c2nnn(C)c2NC(=O)O[C@H](C)c2cccnc2Cl)nc1 [Compound 21, (R)-1-(2-chloropyridin-3-yl)ethyl (4-(5-((ethoxycarbonyl)amino)pyridin-2-yl)-1-methyl-1H-1,2,3-triazol-5-yl)carbamate] | 39.6 |
| CC(C)COC(=O)Nc1ccc(-c2nnn(C)c2NC(=O)O[C@H](C)c2cccnc2Cl)nc1 [Compound 22, (R)-1-(2-chloropyridin-3-yl)ethyl (4-(5-((isobutoxycarbonyl)amino)pyridin-2-yl)-1-methyl-1H-1,2,3-triazol-5-yl)carbamate] | 43.4 |
| CC(=O)Nc1ccc(-c2nnn(C)c2NC(=O)O[C@H](C)c2cccnc2Cl)nc1 [Compound 23, (R)-1-(2-chloropyridin-3-yl)ethyl (4-(5-acetamidopyridin-2-yl)-1-methyl-1H-1,2,3-triazol-5-yl)carbamate] | 1100 |
| CC(=O)Nc1ccc(-c2nnn(C)c2NC(=O)O[C@H](CF)c2cccc(F)c2)nc1 [Compound 25, (S)-2-fluoro-1-(3-fluorophenyl)ethyl (4-(5-acetamidopyridin-2-yl)-1-methyl-1H-1,2,3-triazol-5-yl)carbamate] | 2270 |
| Cc1cnc(F)cc1C(C)OC(=O)Nc1c(-c2ccc(NC(=O)C3CC(F)(F)C3)cn2)nnn1C (stereo not shown) [Compound 26, 1-(2-fluoro-5-methylpyridin-4-yl)ethyl (4-(5-(3,3-difluorocyclobutane-1-carboxamido)pyridin-2-yl)-1-methyl-1H-1,2,3-triazol-5-yl)carbamate] | 587 |
| Cc1cnc(F)cc1C(C)OC(=O)Nc1c(-c2ccc(NC(=O)C3(C#N)CC3)cn2)nnn1C (stereo not shown) [Compound 27, 1-(2-fluoro-5-methylpyridin-4-yl)ethyl (4-(5-(1-cyanocyclopropane-1-carboxamido)pyridin-2-yl)-1-methyl-1H-1,2,3-triazol-5-yl)carbamate] | 1280 |
| C[C@@H](OC(=O)Nc1c(-c2ccc(NC(=O)C3CC(F)(F)C3)cn2)nnn1C)c1cc(F)cnc1F [Compound 28, (R)-1-(2,5-difluoropyridin-3-yl)ethyl (4-(5-(3,3-difluorocyclobutane-1-carboxamido)pyridin-2-yl)-1-methyl-1H-1,2,3-triazol-5-yl)carbamate] | 29.1 |
| C[C@@H](OC(=O)Nc1c(-c2ccc(NC(=O)c3ccccc3)cn2)nnn1C)c1cccnc1Cl [Compound 29, (R)-1-(2-chloropyridin-3-yl)ethyl (4-(5-benzamidopyridin-2-yl)-1-methyl-1H-1,2,3-triazol-5-yl)carbamate] | 261 |
| CCCC(=O)Nc1ccc(-c2nnn(C)c2NC(=O)O[C@H](C)c2cccnc2Cl)nc1 [Compound 30, (R)-1-(2-chloropyridin-3-yl)ethyl (4-(5-butyramidopyridin-2-yl)-1-methyl-1H-1,2,3-triazol-5-yl)carbamate] | 516 |
| COCC(=O)Nc1ccc(-c2nnn(C)c2NC(=O)O[C@H](C)c2cccnc2Cl)nc1 [Compound 31, (R)-1-(2-chloropyridin-3-yl)ethyl (4-(5-(2-methoxyacetamido)pyridin-2-yl)-1-methyl-1H-1,2,3-triazol-5-yl)carbamate] | 2330 |
| C[C@@H](OC(=O)Nc1c(-c2ccc(NC(=O)C3(C)CC3)cn2)nnn1C)c1cccnc1Cl [Compound 32, (R)-1-(2-chloropyridin-3-yl)ethyl (1-methyl-4-(5-(1-methylcyclopropane-1-carboxamido)pyridin-2-yl)-1H-1,2,3-triazol-5-yl)carbamate] | 799 |
| CCC(=O)Nc1ccc(-c2nnn(C)c2NC(=O)O[C@H](C)c2cccnc2Cl)nc1 [Compound 33, (R)-1-(2-chloropyridin-3-yl)ethyl (1-methyl-4-(5-propionamidopyridin-2-yl)-1H-1,2,3-triazol-5-yl)carbamate] | 1020 |

| SMILES | EC50 [nM] |
| --- | --- |
| C[C@@H](OC(=O)Nc1c(-c2ccc(NC(=O)C3CC3)cn2)nnn1C)c1cccnc1Cl [Compound 34, (R)-1-(2-chloropyridin-3-yl)ethyl (4-(5-(cyclopropanecarboxamido)pyridin-2-yl)-1-methyl-1H-1,2,3-triazol-5-yl)carbamate] | 429 |
| C[C@@H](OC(=O)Nc1c(-c2ccc(NC(=O)C3CCC3)cn2)nnn1C)c1cccnc1Cl [Compound 35, (R)-1-(2-chloropyridin-3-yl)ethyl (4-(5-(cyclobutanecarboxamido)pyridin-2-yl)-1-methyl-1H-1,2,3-triazol-5-yl)carbamate] | 103 |
| C[C@@H](OC(=O)Nc1c(-c2ccc(NC(=O)C(F)F)cn2)nnn1C)c1cccnc1Cl [Compound 36, (R)-1-(2-chloropyridin-3-yl)ethyl (4-(5-(2,2-difluoroacetamido)pyridin-2-yl)-1-methyl-1H-1,2,3-triazol-5-yl)carbamate] | 112 |
| C[C@@H](OC(=O)Nc1c(-c2ccc(NC(=O)C3CC(F)(F)C3)cn2)nnn1C)c1cccnc1Cl [Compound 37, (R)-1-(2-chloropyridin-3-yl)ethyl (4-(5-(3,3-difluorocyclobutane-1-carboxamido)pyridin-2-yl)-1-methyl-1H-1,2,3-triazol-5-yl)carbamate] | 54.6 |
| C[C@@H](OC(=O)Nc1c(-c2ccc(NC(=O)C3CNC3)cn2)nnn1C)c1cccnc1Cl [Compound 38, (R)-1-(2-chloropyridin-3-yl)ethyl (4-(5-(azetidine-3-carboxamido)pyridin-2-yl)-1-methyl-1H-1,2,3-triazol-5-yl)carbamate] | 10000 |
| C[C@@H](OC(=O)Nc1c(-c2ccc(NC(=O)C3(C#N)CC3)cn2)nnn1C)c1cc(F)cnc1F [Compound 39, (R)-1-(2,5-difluoropyridin-3-yl)ethyl (4-(5-(1-cyanocyclopropane-1-carboxamido)pyridin-2-yl)-1-methyl-1H-1,2,3-triazol-5-yl)carbamate] | 50.8 |
| C[C@@H](OC(=O)Nc1c(-c2ccc(NC(=O)C3(Cl)CC3)cn2)nnn1C)c1cccnc1Cl [Compound 40, (R)-1-(2-chloropyridin-3-yl)ethyl (4-(5-(1-chlorocyclopropane-1-carboxamido)pyridin-2-yl)-1-methyl-1H-1,2,3-triazol-5-yl)carbamate] | 75.2 |
| C[C@@H](OC(=O)Nc1c(-c2ccc(NC(=O)C3CC4(C3)CC(F)(F)C4)cn2)nnn1C)c1cccnc1Cl [Compound 41, (R)-1-(2-chloropyridin-3-yl)ethyl (4-(5-(6,6-difluorospiro[3.3]heptane-2-carboxamido)pyridin-2-yl)-1-methyl-1H-1,2,3-triazol-5-yl)carbamate] | 38.1 |
| C[C@@H](OC(=O)Nc1c(-c2ccc(NC(=O)C3CC4(COC4)C3)cn2)nnn1C)c1cccnc1Cl [Compound 42, (R)-1-(2-chloropyridin-3-yl)ethyl (4-(5-(2-oxaspiro[3.3]heptane-6-carboxamido)pyridin-2-yl)-1-methyl-1H-1,2,3-triazol-5-yl)carbamate] | 201 |
| C[C@@H](OC(=O)Nc1c(-c2ccc(NC(=O)C3CS(=O)(=O)C3)cn2)nnn1C)c1cccnc1Cl [Compound 43, (R)-1-(2-chloropyridin-3-yl)ethyl (4-(5-(1,1-dioxidothietane-3-carboxamido)pyridin-2-yl)-1-methyl-1H-1,2,3-triazol-5-yl)carbamate] | 497 |
| C[C@@H](OC(=O)Nc1c(-c2ccc(NC(=O)C34CC(C5COC5)(C3)C4)cn2)nnn1C)c1cccnc1Cl [Compound 44, (R)-1-(2-chloropyridin-3-yl)ethyl (1-methyl-4-(5-(3-(oxetan-3-yl)bicyclo[1.1.1]pentane-1-carboxamido)pyridin-2-yl)-1H-1,2,3-triazol-5-yl)carbamate] | 165 |
| C[C@@H](OC(=O)Nc1c(-c2ccc(NC(=O)C34CC(C(F)F)(C3)C4)cn2)nnn1C)c1cccnc1Cl [Compound 45, (R)-1-(2-chloropyridin-3-yl)ethyl (4-(5-(3-(difluoromethyl)bicyclo[1.1.1]pentane-1-carboxamido)pyridin-2-yl)-1-methyl-1H-1,2,3-triazol-5-yl)carbamate] | 40.8 |
| COC12CC(C(=O)Nc3ccc(-c4nnn(C)c4NC(=O)O[C@H](C)c4cccnc4Cl)nc3)(C1)C2 [Compound 46, (R)-1-(2-chloropyridin-3-yl)ethyl (4-(5-(3-methoxybicyclo[1.1.1]pentane-1-carboxamido)pyridin-2-yl)-1-methyl-1H-1,2,3-triazol-5-yl)carbamate] | 29.7 |
| C[C@@H](OC(=O)Nc1c(-c2ccc(NC(=O)C34CC(C)(C3)C4)cn2)nnn1C)c1cccnc1Cl [Compound 47, (R)-1-(2-chloropyridin-3-yl)ethyl (1-methyl-4-(5-(3-methylbicyclo[1.1.1]pentane-1-carboxamido)pyridin-2-yl)-1H-1,2,3-triazol-5-yl)carbamate] | 19.1 |
| C[C@@H](OC(=O)Nc1c(-c2ccc(NC(=O)C3(C(F)(F)F)CCC3)cn2)nnn1C)c1cccnc1Cl [Compound 48, (R)-1-(2-chloropyridin-3-yl)ethyl (1-methyl-4-(5-(1-(trifluoromethyl)cyclobutane-1-carboxamido)pyridin-2-yl)-1H-1,2,3-triazol-5-yl)carbamate] | 22.8 |

— patent publication US11912686B2 (Gilead Sciences, Inc., priority 2020, dated 2024)
